Experimental data: paper PMC7311426, “An amphipathic peptide with antibiotic activity against multidrug-resistant Gram-negative bacteria” (Nature Communications, 2020)
In brackets after ≈: the same amount, converted by molar mass.

Test system: A. baumannii clinical isolates
Assay: microbe, parasite or virus in culture
Protocol: The in vitro activity of AA139 and comparator antimicrobials was determined in two panels of clinical isolates of E. coli, K. pneumoniae, P. aeruginosa, and A. baumannii (Supplementary Table 3), and MIC90 presented. The US panel consisted of 331 clinical isolates from 2010 to 2012. It was tested by BMD in accordance with the CLSI guidelines (M07-A9, 2012)[39]. […] AA139 was diluted in 0.01% acetic acid/0.1% bovine serum albumin. Sterile polypropylene culture cluster round-bottom 96-well plates (Costar # 3879) were used for testing. The worldwide panel consisted of 445 clinical isolates from 2011 to 2013, geographically divided into Asia, Europe, North America, and Rest of World (Middle East, Latin America, Africa, and South Pacific) with each region representing ~25% of the isolates. It was tested by broth microdilution in accordance with the CLSI guidelines (M07-A9, 2012)[39]. […] The test media was CAMHB (Becton Dickinson). AA139 and polymyxin B were tested in media supplemented with 0.002% Tween 80 (Calbiochem). MIC90 values were calculated for all or subsets of the isolates. MIC correlation between AA139 and colistin was analyzed with data from the US panel.

[1] = US isolates 2010-2012, isolate CID 1919446, Rep 1
[2] = US isolates 2010-2012, isolate CID 1919446, Rep 2
[3] = US isolates 2010-2012, isolate CID 1919519, Rep 1
[4] = US isolates 2010-2012, isolate CID 1919519, Rep 2
[5] = US isolates 2010-2012, isolate CID 1919714, Rep 1
[6] = US isolates 2010-2012, isolate CID 1919714, Rep 2
[7] = US isolates 2010-2012, isolate CID 1919942, Rep 1
[8] = US isolates 2010-2012, isolate CID 1919942, Rep 2
[9] = US isolates 2010-2012, isolate CID 1930670, Rep 1
[10] = US isolates 2010-2012, isolate CID 1930670, Rep 2
[11] = US isolates 2010-2012, isolate CID 1930676, Rep 1
[12] = US isolates 2010-2012, isolate CID 1930676, Rep 2
[13] = US isolates 2010-2012, isolate CID 2727597, Rep 1
[14] = US isolates 2010-2012, isolate CID 2727597, Rep 2
[15] = US isolates 2010-2012, isolate CID 2727598, Rep 1
[16] = US isolates 2010-2012, isolate CID 2727598, Rep 2
[17] = US isolates 2010-2012, isolate CID 2727898, Rep 1
[18] = US isolates 2010-2012, isolate CID 2727898, Rep 2
[19] = US isolates 2010-2012, isolate CID 2728115, Rep 1
[20] = US isolates 2010-2012, isolate CID 2728115, Rep 2
[21] = US isolates 2010-2012, isolate CID 2728119, Rep 1
[22] = US isolates 2010-2012, isolate CID 2728119, Rep 2
[23] = US isolates 2010-2012, isolate CID 2728650, Rep 1
[24] = US isolates 2010-2012, isolate CID 2728650, Rep 2
[25] = US isolates 2010-2012, isolate CID 2728663, Rep 1
[26] = US isolates 2010-2012, isolate CID 2728663, Rep 2
[27] = US isolates 2010-2012, isolate CID 2732481, Rep 1
[28] = US isolates 2010-2012, isolate CID 2732481, Rep 2
[29] = US isolates 2010-2012, isolate CID 2732486, Rep 1
[30] = US isolates 2010-2012, isolate CID 2732486, Rep 2
[31] = US isolates 2010-2012, isolate CID 2762740, Rep 1
[32] = US isolates 2010-2012, isolate CID 2762740, Rep 2
[33] = US isolates 2010-2012, isolate CID 2801947, Rep 1
[34] = US isolates 2010-2012, isolate CID 2801947, Rep 2
[35] = US isolates 2010-2012, isolate CID 2801949, Rep 1
[36] = US isolates 2010-2012, isolate CID 2801949, Rep 2
[37] = US isolates 2010-2012, isolate CID 2802027, Rep 1
[38] = US isolates 2010-2012, isolate CID 2802027, Rep 2
[39] = US isolates 2010-2012, isolate CID 2802028, Rep 1
[40] = US isolates 2010-2012, isolate CID 2802028, Rep 2
[41] = US isolates 2010-2012, isolate CID 2802029, Rep 1
[42] = US isolates 2010-2012, isolate CID 2802029, Rep 2
[43] = US isolates 2010-2012, isolate CID 2802031, Rep 1
[44] = US isolates 2010-2012, isolate CID 2802031, Rep 2
[45] = US isolates 2010-2012, isolate CID 2802109, Rep 2
[46] = US isolates 2010-2012, isolate CID 2802111, Rep 2
[47] = US isolates 2010-2012, isolate CID 2802187, Rep 1
[48] = US isolates 2010-2012, isolate CID 2802187, Rep 2

CC(C)(O/N=C(\C(=O)N[C@@H]1C(=O)N2C(C(=O)[O-])=C(C[n+]3ccccc3)CS[C@H]12)c1csc(N)n1)C(=O)O [Ceftaz]
MIC [1]: 4 µg/mL (≈ 7.32 µM)
MIC [2]: 4 µg/mL (≈ 7.32 µM)
MIC [3]: > 32 µg/mL
MIC [4]: > 32 µg/mL
MIC [5]: > 32 µg/mL
MIC [6]: > 32 µg/mL
MIC [7]: 8 µg/mL (≈ 14.6 µM)
MIC [8]: 4 µg/mL (≈ 7.32 µM)
MIC [9]: > 32 µg/mL
MIC [10]: > 32 µg/mL
MIC [11]: 4 µg/mL (≈ 7.32 µM)
MIC [12]: 4 µg/mL (≈ 7.32 µM)
MIC [13]: > 32 µg/mL
MIC [14]: > 32 µg/mL
MIC [15]: > 32 µg/mL
MIC [16]: > 32 µg/mL
MIC [17]: 2 µg/mL (≈ 3.66 µM)
MIC [18]: 4 µg/mL (≈ 7.32 µM)
MIC [19]: > 32 µg/mL
MIC [20]: > 32 µg/mL
MIC [21]: 32 µg/mL (≈ 58.5 µM)
MIC [22]: 32 µg/mL (≈ 58.5 µM)
MIC [23]: > 32 µg/mL
MIC [24]: > 32 µg/mL
MIC [25]: > 32 µg/mL
MIC [26]: > 32 µg/mL
MIC [27]: 32 µg/mL (≈ 58.5 µM)
MIC [28]: 32 µg/mL (≈ 58.5 µM)
MIC [29]: > 32 µg/mL
MIC [30]: 32 µg/mL (≈ 58.5 µM)
MIC [31]: > 32 µg/mL
MIC [32]: > 32 µg/mL
MIC [33]: 2 µg/mL (≈ 3.66 µM)
MIC [34]: 2 µg/mL (≈ 3.66 µM)
MIC [35]: 8 µg/mL (≈ 14.6 µM)
MIC [36]: 2 µg/mL (≈ 3.66 µM)
MIC [37]: > 32 µg/mL
MIC [38]: > 32 µg/mL
MIC [39]: > 32 µg/mL
MIC [40]: > 32 µg/mL
MIC [41]: > 32 µg/mL
MIC [42]: > 32 µg/mL
MIC [43]: > 32 µg/mL
MIC [44]: > 32 µg/mL
MIC [45]: 32 µg/mL (≈ 58.5 µM)
MIC [46]: 8 µg/mL (≈ 14.6 µM)
MIC [47]: 4 µg/mL (≈ 7.32 µM)
MIC [48]: 4 µg/mL (≈ 7.32 µM)

CN(C)c1cc(NC(=O)CNC(C)(C)C)c(O)c2c1C[C@H]1C[C@H]3[C@H](N(C)C)C(O)=C(C(N)=O)C(=O)[C@@]3(O)C(O)=C1C2=O [Tig]
MIC [1]: 2 µg/mL (≈ 3.41 µM)
MIC [2]: 1 µg/mL (≈ 1.71 µM)
MIC [3]: 2 µg/mL (≈ 3.41 µM)
MIC [4]: 2 µg/mL (≈ 3.41 µM)
MIC [5]: 2 µg/mL (≈ 3.41 µM)
MIC [6]: 2 µg/mL (≈ 3.41 µM)
MIC [7]: 0.25 µg/mL (≈ 0.427 µM)
MIC [8]: 0.5 µg/mL (≈ 0.854 µM)
MIC [9]: 0.5 µg/mL (≈ 0.854 µM)
MIC [10]: 1 µg/mL (≈ 1.71 µM)
MIC [11]: 0.25 µg/mL (≈ 0.427 µM)
MIC [12]: 0.25 µg/mL (≈ 0.427 µM)
MIC [13]: 2 µg/mL (≈ 3.41 µM)
MIC [14]: 2 µg/mL (≈ 3.41 µM)
MIC [15]: 1 µg/mL (≈ 1.71 µM)
MIC [16]: 1 µg/mL (≈ 1.71 µM)
MIC [17]: 0.12 µg/mL (≈ 0.205 µM)
MIC [18]: 0.12 µg/mL (≈ 0.205 µM)
MIC [19]: 2 µg/mL (≈ 3.41 µM)
MIC [20]: 2 µg/mL (≈ 3.41 µM)
MIC [21]: 2 µg/mL (≈ 3.41 µM)
MIC [22]: 2 µg/mL (≈ 3.41 µM)
MIC [23]: 1 µg/mL (≈ 1.71 µM)
MIC [24]: 1 µg/mL (≈ 1.71 µM)
MIC [25]: 2 µg/mL (≈ 3.41 µM)
MIC [26]: 1 µg/mL (≈ 1.71 µM)
MIC [27]: 2 µg/mL (≈ 3.41 µM)
MIC [28]: 1 µg/mL (≈ 1.71 µM)
MIC [29]: 1 µg/mL (≈ 1.71 µM)
MIC [30]: 1 µg/mL (≈ 1.71 µM)
MIC [31]: 0.5 µg/mL (≈ 0.854 µM)
MIC [32]: 8 µg/mL (≈ 13.7 µM)
MIC [33]: 0.25 µg/mL (≈ 0.427 µM)
MIC [34]: 0.12 µg/mL (≈ 0.205 µM)
MIC [35]: 0.5 µg/mL (≈ 0.854 µM)
MIC [36]: 0.25 µg/mL (≈ 0.427 µM)
MIC [37]: 1 µg/mL (≈ 1.71 µM)
MIC [38]: 0.5 µg/mL (≈ 0.854 µM)
MIC [39]: 0.5 µg/mL (≈ 0.854 µM)
MIC [40]: 0.5 µg/mL (≈ 0.854 µM)
MIC [41]: 2 µg/mL (≈ 3.41 µM)
MIC [42]: 2 µg/mL (≈ 3.41 µM)
MIC [43]: 1 µg/mL (≈ 1.71 µM)
MIC [44]: 1 µg/mL (≈ 1.71 µM)
MIC [45]: 1 µg/mL (≈ 1.71 µM)
MIC [46]: 2 µg/mL (≈ 3.41 µM)
MIC [47]: 0.25 µg/mL (≈ 0.427 µM)
MIC [48]: 0.25 µg/mL (≈ 0.427 µM)

C[C@@H](O)[C@H]1C(=O)N2C(C(=O)O)=C(S[C@@H]3CN[C@H](C(=O)N(C)C)C3)[C@H](C)[C@H]12 [Mero]
MIC [1]: 1 µg/mL (≈ 2.61 µM)
MIC [2]: 2 µg/mL (≈ 5.22 µM)
MIC [3]: > 16 µg/mL
MIC [4]: > 16 µg/mL
MIC [5]: > 16 µg/mL
MIC [6]: > 16 µg/mL
MIC [7]: 1 µg/mL (≈ 2.61 µM)
MIC [8]: 1 µg/mL (≈ 2.61 µM)
MIC [9]: 16 µg/mL (≈ 41.7 µM)
MIC [10]: > 16 µg/mL
MIC [11]: 0.5 µg/mL (≈ 1.3 µM)
MIC [12]: 0.5 µg/mL (≈ 1.3 µM)
MIC [13]: > 16 µg/mL
MIC [14]: > 16 µg/mL
MIC [15]: > 16 µg/mL
MIC [16]: > 16 µg/mL
MIC [17]: 0.5 µg/mL (≈ 1.3 µM)
MIC [18]: 0.5 µg/mL (≈ 1.3 µM)
MIC [19]: > 16 µg/mL
MIC [20]: > 16 µg/mL
MIC [21]: > 16 µg/mL
MIC [22]: > 16 µg/mL
MIC [23]: 16 µg/mL (≈ 41.7 µM)
MIC [24]: 16 µg/mL (≈ 41.7 µM)
MIC [25]: 1 µg/mL (≈ 2.61 µM)
MIC [26]: 2 µg/mL (≈ 5.22 µM)
MIC [27]: > 16 µg/mL
MIC [28]: > 16 µg/mL
MIC [29]: > 16 µg/mL
MIC [30]: > 16 µg/mL
MIC [31]: > 16 µg/mL
MIC [32]: > 16 µg/mL
MIC [33]: 0.25 µg/mL (≈ 0.652 µM)
MIC [34]: 0.25 µg/mL (≈ 0.652 µM)
MIC [35]: 1 µg/mL (≈ 2.61 µM)
MIC [36]: 0.25 µg/mL (≈ 0.652 µM)
MIC [37]: > 16 µg/mL
MIC [38]: > 16 µg/mL
MIC [39]: > 16 µg/mL
MIC [40]: > 16 µg/mL
MIC [41]: > 16 µg/mL
MIC [42]: > 16 µg/mL
MIC [43]: 1 µg/mL (≈ 2.61 µM)
MIC [44]: 1 µg/mL (≈ 2.61 µM)
MIC [45]: > 16 µg/mL
MIC [46]: > 16 µg/mL
MIC [47]: 1 µg/mL (≈ 2.61 µM)
MIC [48]: 2 µg/mL (≈ 5.22 µM)
